Read-outs that look alike come from different tables or passages of the source. Marks after values point to notes of the source that are not given here.
Columns and labels:
[1] = system: acute rhinosinusitis induced by intranasal administration of formalin; assay type: in vivo, rat; details: for The number of caliciform cells within 1 mm of the mucosal membrane of the nasal septum: M ± m; for Mucopurulent catarrh (number of rats) / Mucous catarrh (number of rats) / Without changes (number of rats, mucous membrane in the nasal passages, macroscopic): n = 10
Description: Activity of glutaryl histamine was studied in an experimental model of acute rhinosinusitis (ARS).
Administration of 20 μl of 7.5% formalin to the rat nasal passages leads to the development of a clinical picture similar to the symptoms of acute rhinosinusitis in a human.
The tested medicament and reference medicaments were administered for 7 days after administration of 7.5% formalin. Normal saline solution was used as placebo. The animals were subjected to euthanasia on day 8 after induction of experimental acute rhinosinusitis by method of air embolism. During necropsy, nasal passages of all animals were sampled. The obtained material was placed into 10% neutral-buffered formalin for further histological analysis.
The mucous and submucous membranes of both nasal passages (respiratory and olfactory regions) of the experimental animals were subjected to a morphological analysis of the specific activity of glutaryl histamine.
After the clinical phase of the experiment, the material derived from the animals was subjected to the standard treatment to prepare histological paraffin sections with a thickness of 3 to 5 μm. The sections were stained with hematoxylin and eosin for a microscopic study. Comparison and histological analysis of changes were performed versus the group of intact rats.
The main pathological processes inherent in experimental acute rhinosinusitis, such as vascular congestion in mucous membrane, hyperplasia and necrosis of the epithelium, the number of caliciform cells within 1 mm of the mucous membrane in the nasal septum, were evaluated by a semi-quantitative method to evaluate the degree of pathophysiological changes in histological, histochemical and morphological studies.
The microscopic analysis of exudative disorder developed in rats with acute rhinitis was aimed at measuring the number of caliciform cells comprising acidic mucus (Table 3).

[2] = system: Staphylococcus aureus (mouse-adapted MRSA strain 5); assay: animal or person; assay type: in vivo, mice
Description: Tested medicament was glutaryl histamine in doses of 15, 30 and 45 mg/kg. Solutions of the tested medicament for oral administration were prepared ex tempore in stream water. Ampicillin (in intravenous administration) was used as a therapeutic preparation since it is the most experimentally studied antibiotic approved in clinical practice many years ago. Levofloxacin was used as a positive control (in oral administration).
Staphylococcus aureus was used as an infectious agent (mouse-adapted MRSA strain 5, collection from GU NIINA im.G.F. Gauze RAMN).
Firstly, there was determined a lethal dose (LD100) of staphylococcus when intravenously administered to this line of mice with a certain weight. Fatal cases among mice were registered every day for ten days. […] After that, there was determined the dose of ampicillin providing a survival rate of 20% of mice infected with staphylococcus MRSA taken in a lethal dose. For this purpose, mice were housed into cages by 10 animals and infected with a lethal dose of staphylococcus. One hour later, each mouse was intravenously administered ampicillin in doses of 30, 60, 90, 120, 150, and 180 mg/kg. A group of mice infected with a lethal dose of staphylococcus without the treatment was considered as a control group. Fatal cases among mice were registered every day for ten days.
The next step of the experiment was to study an effect of combined administration of glutaryl histamine with ampicilline on a model of MRSA-induced staphylococcal sepsis in mice.
In the experiment, the mice were housed in following groups of 10 animals per cage: […]

[3] = group 2: ampicillin 120 mg/ml i.v. one time

O=C(O)CCCC(=O)NCCc1c[nH]cn1 [glutaryl histamine]
The number of caliciform cells within 1 mm of the mucosal membrane of the nasal septum ([1]; Glutaryl histamine 9 mg/kg): 29.0 ± 2.7* **
Mucopurulent catarrh (number of rats) ([1]; Glutaryl histamine 9 mg/kg): 3
Mucous catarrh (number of rats) ([1]; Glutaryl histamine 9 mg/kg): 4
Without changes (number of rats, mucous membrane in the nasal passages, macroscopic) ([1]; Glutaryl histamine 9 mg/kg): 3
The number of caliciform cells within 1 mm of the mucosal membrane of the nasal septum ([1]; Glutaryl histamine 27 mg/kg): 19.6±2.4
The number of caliciform cells within 1 mm of the mucosal membrane of the nasal septum ([1]; Glutaryl histamine 27 mg/kg, listed as Glutaryl histamine): 19.6 ± 2.4
Mucopurulent catarrh (number of rats) ([1]; Glutaryl histamine 27 mg/kg): 1
Mucous catarrh (number of rats) ([1]; Glutaryl histamine 27 mg/kg): 1
Without changes (number of rats, mucous membrane in the nasal passages, macroscopic) ([1]; Glutaryl histamine 27 mg/kg): 8
The number of caliciform cells within 1 mm of the mucosal membrane of the nasal septum ([1]; Glutaryl histamine 45 mg/kg): 23.9 ± 1.7* **
Mucopurulent catarrh (number of rats) ([1]; Glutaryl histamine 45 mg/kg): 0
Mucous catarrh (number of rats) ([1]; Glutaryl histamine 45 mg/kg): 0
Without changes (number of rats, mucous membrane in the nasal passages, macroscopic) ([1]; Glutaryl histamine 45 mg/kg): 10

CC1(C)S[C@@H]2[C@H](NC(=O)[C@H](N)c3ccccc3)C(=O)N2[C@H]1C(=O)O [ampicillin]
Survival rate (%) ([2]; ampicillin 30 mg/kg + LD100 St.a., day 10): 0%
Survival rate (%) ([2]; ampicillin 60 mg/kg + LD100 St.a., day 10): 0%
Survival rate (%) ([2]; ampicillin 90 mg/kg + LD100 St.a., day 10): 10%
Survival rate (%) ([2]; ampicillin 120 mg/kg + LD100 St.a., day 10): 20%
Survival rate (%) ([2]; ampicillin 150 mg/kg + LD100 St.a., day 10): 20%
Survival rate (%) ([2]; ampicillin 180 mg/kg + LD100 St.a., day 10): 20%
died/survived animals ([2]; day 1, ampicillin 30 mg/kg + LD100 St.a.): 0/10
died/survived animals ([2]; day 1, ampicillin 60 mg/kg + LD100 St.a.): 0/10
died/survived animals ([2]; day 1, ampicillin 90 mg/kg + LD100 St.a.): 0/10
died/survived animals ([2]; day 1, ampicillin 120 mg/kg + LD100 St.a.): 0/10
died/survived animals ([2]; day 1, ampicillin 150 mg/kg + LD100 St.a.): 0/10
died/survived animals ([2]; day 1, ampicillin 180 mg/kg + LD100 St.a.): 0/10
died/survived animals ([2]; day 1, group 2: ampicillin 120 mg/ml i.v. one time): 0/10
died/survived animals ([2]; day 2, ampicillin 30 mg/kg + LD100 St.a.): 1/9
died/survived animals ([2]; day 2, ampicillin 60 mg/kg + LD100 St.a.): 0/10
died/survived animals ([2]; day 2, ampicillin 90 mg/kg + LD100 St.a.): 0/10
died/survived animals ([2]; day 2, ampicillin 120 mg/kg + LD100 St.a.): 0/10
died/survived animals ([2]; day 2, ampicillin 150 mg/kg + LD100 St.a.): 0/10
died/survived animals ([2]; day 2, ampicillin 180 mg/kg + LD100 St.a.): 0/10
died/survived animals ([2]; day 2, group 2: ampicillin 120 mg/ml i.v. one time): 0/10
died/survived animals ([2]; day 3, ampicillin 30 mg/kg + LD100 St.a.): 3/7
died/survived animals ([2]; day 3, ampicillin 60 mg/kg + LD100 St.a.): 2/8
died/survived animals ([2]; day 3, ampicillin 90 mg/kg + LD100 St.a.): 1/9
died/survived animals ([2]; day 3, ampicillin 120 mg/kg + LD100 St.a.): 1/9
died/survived animals ([2]; day 3, ampicillin 150 mg/kg + LD100 St.a.): 0/10
died/survived animals ([2]; day 3, ampicillin 180 mg/kg + LD100 St.a.): 0/10
died/survived animals ([2]; day 3, group 2: ampicillin 120 mg/ml i.v. one time): 1/9
died/survived animals ([2]; day 4, ampicillin 30 mg/kg + LD100 St.a.): 6/4
died/survived animals ([2]; day 4, ampicillin 60 mg/kg + LD100 St.a.): 4/6
died/survived animals ([2]; day 4, ampicillin 90 mg/kg + LD100 St.a.): 3/7
died/survived animals ([2]; day 4, ampicillin 120 mg/kg + LD100 St.a.): 4/6
died/survived animals ([2]; day 4, ampicillin 150 mg/kg + LD100 St.a.): 3/7
died/survived animals ([2]; day 4, ampicillin 180 mg/kg + LD100 St.a.): 2/8
died/survived animals ([2]; day 4, group 2: ampicillin 120 mg/ml i.v. one time): 2/8
died/survived animals ([2]; day 5, ampicillin 30 mg/kg + LD100 St.a.): 8/2
died/survived animals ([2]; day 5, ampicillin 60 mg/kg + LD100 St.a.): 6/4
died/survived animals ([2]; day 5, ampicillin 90 mg/kg + LD100 St.a.): 5/5
died/survived animals ([2]; day 5, ampicillin 120 mg/kg + LD100 St.a.): 6/4
died/survived animals ([2]; day 5, ampicillin 150 mg/kg + LD100 St.a.): 5/5
died/survived animals ([2]; day 5, ampicillin 180 mg/kg + LD100 St.a.): 4/6
died/survived animals ([2]; day 5, group 2: ampicillin 120 mg/ml i.v. one time): 3/7
died/survived animals ([2]; day 6, ampicillin 30 mg/kg + LD100 St.a.): 9/1
died/survived animals ([2]; day 6, ampicillin 60 mg/kg + LD100 St.a.): 8/2
died/survived animals ([2]; day 6, ampicillin 90 mg/kg + LD100 St.a.): 7/3
died/survived animals ([2]; day 6, ampicillin 120 mg/kg + LD100 St.a.): 7/3
died/survived animals ([2]; day 6, ampicillin 150 mg/kg + LD100 St.a.): 7/3
died/survived animals ([2]; day 6, ampicillin 180 mg/kg + LD100 St.a.): 6/4
died/survived animals ([2]; day 6, group 2: ampicillin 120 mg/ml i.v. one time): 5/5
died/survived animals ([2]; day 7, ampicillin 30 mg/kg + LD100 St.a.): 10/0
died/survived animals ([2]; day 7, ampicillin 60 mg/kg + LD100 St.a.): 9/1
died/survived animals ([2]; day 7, ampicillin 90 mg/kg + LD100 St.a.): 8/2
died/survived animals ([2]; day 7, ampicillin 120 mg/kg + LD100 St.a.): 8/2
died/survived animals ([2]; day 7, ampicillin 150 mg/kg + LD100 St.a.): 7/3
died/survived animals ([2]; day 7, ampicillin 180 mg/kg + LD100 St.a.): 7/3
died/survived animals ([2]; day 7, group 2: ampicillin 120 mg/ml i.v. one time): 6/4
died/survived animals ([2]; day 8, ampicillin 30 mg/kg + LD100 St.a.): 10/0
died/survived animals ([2]; day 8, ampicillin 60 mg/kg + LD100 St.a.): 10/0
died/survived animals ([2]; day 8, ampicillin 90 mg/kg + LD100 St.a.): 9/1
died/survived animals ([2]; day 8, ampicillin 120 mg/kg + LD100 St.a.): 8/2
died/survived animals ([2]; day 8, ampicillin 150 mg/kg + LD100 St.a.): 8/2
died/survived animals ([2]; day 8, ampicillin 180 mg/kg + LD100 St.a.): 7/3
died/survived animals ([2]; day 8, group 2: ampicillin 120 mg/ml i.v. one time): 7/3
died/survived animals ([2]; day 9, ampicillin 30 mg/kg + LD100 St.a.): 10/0
died/survived animals ([2]; day 9, ampicillin 60 mg/kg + LD100 St.a.): 10/0
died/survived animals ([2]; day 9, ampicillin 90 mg/kg + LD100 St.a.): 9/1
died/survived animals ([2]; day 9, ampicillin 120 mg/kg + LD100 St.a.): 8/2
died/survived animals ([2]; day 9, ampicillin 150 mg/kg + LD100 St.a.): 8/2
died/survived animals ([2]; day 9, ampicillin 180 mg/kg + LD100 St.a.): 8/2
died/survived animals ([2]; day 9, group 2: ampicillin 120 mg/ml i.v. one time): 8/2
died/survived animals ([2]; day 10, ampicillin 30 mg/kg + LD100 St.a.): 10/0
died/survived animals ([2]; day 10, ampicillin 60 mg/kg + LD100 St.a.): 10/0
died/survived animals ([2]; day 10, ampicillin 90 mg/kg + LD100 St.a.): 9/1
died/survived animals ([2]; day 10, ampicillin 120 mg/kg + LD100 St.a.): 8/2
died/survived animals ([2]; day 10, ampicillin 150 mg/kg + LD100 St.a.): 8/2
died/survived animals ([2]; day 10, ampicillin 180 mg/kg + LD100 St.a.): 8/2
died/survived animals ([2]; day 10, group 2: ampicillin 120 mg/ml i.v. one time): 8/2
Mortality rate (%) [2, 3]: 80%
Survival rate (%) [2, 3]: 20%

— patent US20170143674A1, “Use of Glutaryl Histamine for the Treatment of Respiratory Tract Diseases” (LTD "VALENTA-INTELLEKT", priority 2011, published 2017)
